Experimental data reported in ChEMBL document CHEMBL1201862, “PubChem BioAssay data set” (2004).
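How tested: cells in 96-well plates exposed to compound for 48 hours at five concentrations. GI50 is the concentration that inhibits growth by half.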 Activity calls are given as the source filed them. Cut-off read from the data, not from the text of the source: active = GI50 up to about 1.1 µM and inactive = higher.

Assays:
Experiment in all cases: growth of human tumour cells (NCI), 48 h
NCI-H23 = tested on: NCI-H23
HCT-15 = tested on: HCT-15
HOP-62 = tested on: HOP-62
M14 = tested on: M14
SF-268 = tested on: SF-268
UACC-62 = tested on: UACC-62
UO-31 = tested on: UO-31
COLO 205 = tested on: COLO 205
SF-539 = tested on: SF-539
KM12 = tested on: KM12
MDA-MB-435 = tested on: MDA-MB-435
K562 = tested on: K562
SW-620 = tested on: SW-620
OVCAR-5 = tested on: OVCAR-5
SK-OV-3 = tested on: SK-OV-3
A549 = tested on: A549
PC-3 = tested on: PC-3
NCI-H460 = tested on: NCI-H460
HCT-116 = tested on: HCT-116
CAKI-1 = tested on: CAKI-1
NCI-H226 = tested on: NCI-H226
HCC 2998 = tested on: HCC 2998
Malme-3M = tested on: Malme-3M
MOLT-4 = tested on: MOLT-4
SK-MEL-2 = tested on: SK-MEL-2
HL-60 = tested on: HL-60
SNB-75 = tested on: SNB-75
RPMI-8226 = tested on: RPMI-8226
SNB-19 = tested on: SNB-19
IGROV-1 = tested on: IGROV-1
Hs-578T = tested on: Hs-578T
A498 = tested on: A498
SN12C = tested on: SN12C
DU-145 = tested on: DU-145
OVCAR-4 = tested on: OVCAR-4
U-251 = tested on: U-251
LOX IMVI = tested on: LOX IMVI
SF-295 = tested on: SF-295
NCI/ADR-RES = tested on: NCI/ADR-RES
HOP-92 = tested on: HOP-92
OVCAR-8 = tested on: OVCAR-8
HT-29 = tested on: HT-29
T47D = tested on: T47D
TK-10 = tested on: TK-10
ACHN = tested on: ACHN
MDA-MB-231 = tested on: MDA-MB-231
MDA-N = tested on: MDA-N
NCI-H522 = tested on: NCI-H522
786-0 = tested on: 786-0
RXF 393 = tested on: RXF 393
UACC-257 = tested on: UACC-257
EKVX = tested on: EKVX
SK-MEL-5 = tested on: SK-MEL-5
OVCAR-3 = tested on: OVCAR-3
MCF7 = tested on: MCF7
SR = tested on: SR
SK-MEL-28 = tested on: SK-MEL-28

Measured: GI50

COc1ccccc1N(CN1C(=O)CCC1C(=O)O)C(C)=O (configuration not stated)
> 100 µM: HCT-15
active: IGROV-1 0.138 µM
inactive: NCI-H23 > 100 µM | HOP-62 > 100 µM | M14 > 100 µM | SF-268 53 µM | UACC-62 > 100 µM | UO-31 > 100 µM | COLO 205 > 100 µM | SF-539 > 100 µM | KM12 > 100 µM | MDA-MB-435 > 100 µM | K562 > 100 µM | SW-620 > 100 µM | OVCAR-5 > 100 µM | SK-OV-3 > 100 µM | A549 > 100 µM | PC-3 > 100 µM | NCI-H460 > 100 µM | HCT-116 > 100 µM | CAKI-1 > 100 µM | NCI-H226 > 100 µM | HCC 2998 > 100 µM | Malme-3M > 100 µM | MOLT-4 > 100 µM | SK-MEL-2 > 100 µM | HL-60 > 100 µM | SNB-75 > 100 µM | RPMI-8226 > 100 µM | SNB-19 > 100 µM | Hs-578T > 100 µM | A498 > 100 µM | SN12C > 100 µM | DU-145 > 100 µM | OVCAR-4 > 100 µM | U-251 > 100 µM | LOX IMVI > 100 µM | SF-295 > 100 µM | NCI/ADR-RES > 100 µM | HOP-92 > 100 µM | OVCAR-8 > 100 µM | HT-29 > 100 µM | T47D > 100 µM | TK-10 > 100 µM | ACHN > 100 µM | MDA-MB-231 > 100 µM | MDA-N > 100 µM | NCI-H522 > 100 µM | 786-0 > 100 µM | RXF 393 74.5 µM | UACC-257 > 100 µM | EKVX > 100 µM | SK-MEL-5 > 100 µM | OVCAR-3 > 100 µM | MCF7 > 100 µM | SR 72.6 µM | SK-MEL-28 > 100 µM
